In patent US20200376007A1, “THERAPEUTIC COMPOUNDS AND METHODS OF USE THEREOF” (REGENTS OF THE UNIVERSITY OF MINNESOTA, priority 2019, published 2020) one finds EC50 data, which are given here for five compounds.

pEC50: −log10 of the molar value.

This experiment deals with T1, human TGR5 receptor (Homo sapiens, UniProt Q8TDU6).
T1 construct: expressed in transfected cells
T1 sequence (Q8TDU6 1-330): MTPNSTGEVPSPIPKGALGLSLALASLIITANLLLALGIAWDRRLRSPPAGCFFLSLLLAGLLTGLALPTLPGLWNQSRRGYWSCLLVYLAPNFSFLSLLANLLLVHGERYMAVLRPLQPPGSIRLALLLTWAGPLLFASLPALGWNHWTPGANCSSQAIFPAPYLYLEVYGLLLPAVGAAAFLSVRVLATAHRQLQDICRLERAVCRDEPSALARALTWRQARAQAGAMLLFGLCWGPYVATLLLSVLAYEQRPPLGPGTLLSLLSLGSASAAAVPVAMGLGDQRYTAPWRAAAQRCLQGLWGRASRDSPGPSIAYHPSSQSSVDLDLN
Nature of the experiment: TGR5 cAMP assay. Type of experiment: cell-based. The conditions noted are these: TGR5 agonist activity; cAMP production in a recombinant cell line expressing human TGR5 receptor. The method, then: TGR5 agonist activity was evaluated by assaying cAMP production in a recombinant cell line expressing human TGR5 receptor.
Consider `CO[C@@H]1C[C@@H]2C[C@H](O)CC[C@]2(C)[C@H]2CC[C@]3(C)[C@@H]([C@H](C)CCC(=O)O)CC[C@H]3[C@H]12` [Example 3, (R)-4-((3R,5S,7R,8R,9S,10S,13R,14S,17R)-3-hydroxy-7-methoxy-10,13-dimethylhexadecahydro-1H-cyclopenta[a]phenanthren-17-yl)pentanoic acid], for which the negative-log EC50 (pEC50) is 7.13.

Take `CO[C@@H]1C[C@@H]2C[C@H](O)CC[C@]2(C)[C@H]2CC[C@]3(C)[C@@H]([C@H](C)CCC(=O)N(C)C[C@H](O)[C@@H](O)[C@H](O)[C@H](O)CO)CC[C@H]3[C@H]12` [Example 7, (R)-4-((3R,5S,7R,8R,9S,10S,13R,14S,17R)-3-hydroxy-7-methoxy-10,13-dimethylhexadecahydro-1H-cyclopenta[a]phenanthren-17-yl)-N-methyl-N-((2S,3R,4R,5R)-2,3,4,5,6-pentahydroxyhexyl)pentanamide]: the negative logarithm of the EC50 (pEC50) is 7.22.

`COCCOCCNC(=O)CC[C@@H](C)[C@H]1CC[C@H]2[C@@H]3[C@H](OC)C[C@@H]4C[C@H](O)CC[C@]4(C)[C@H]3CC[C@]12C` [Example 4, (R)-4-((3R,5S,7R,8R,9S,10S,13R,14S,17R)-3-hydroxy-7-methoxy-10,13-dimethylhexadecahydro-1H-cyclopenta[a]phenanthren-17-yl)-N-(2-(2-methoxyethoxy)ethyl)pentanamide]: the pEC50 is 7.31.

With `CO[C@@H]1C[C@@H]2C[C@H](O)CC[C@]2(C)[C@H]2CC[C@]3(C)[C@@H]([C@H](C)CCC(=O)NC[C@H](O)[C@@H](O)[C@H](O)[C@H](O)CO)CC[C@H]3[C@H]12` [Example 6, (R)-4-((3R,5S,7R,8R,9S,10S,13R,14S,17R)-3-hydroxy-7-methoxy-10,13-dimethylhexadecahydro-1H-cyclopenta[a]phenanthren-17-yl)-N-((2S,3R,4R,5R)-2,3,4,5,6-pentahydroxyhexyl)pentanamide], the pEC50 is 7.56.

`COCc1nnc(CC[C@@H](C)[C@H]2CC[C@H]3[C@@H]4[C@H](OC)C[C@@H]5C[C@H](O)CC[C@]5(C)[C@H]4CC[C@]23C)o1` [Example 5, (3R,5S,7R,8R,9S,10S,13R,14S,17R)-7-methoxy-17-((R)-4-(5-(methoxymethyl)-1,3,4-oxadiazol-2-yl)butan-2-yl)-10,13-dimethylhexadecahydro-1-cyclopenta[a]phenanthren-3-ol]: the negative logarithm of the EC50 (pEC50) was 7.65.
